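In this assay, cells in 96-well plates receive the compound at five concentrations for 48 hours. Endpoints are linearly interpolated between the surrounding concentrations. GI50 marks 50% less growth. Definition used: TGI = concentration required for complete inhibition of growth.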
How the values were obtained:
Assay in all cases: DTP human tumour cell line panel, 48 h
[1] = tested on: MDA-MB-468 breast
[2] = tested on: UO-31 renal
[3] = tested on: HOP-92 NSCLC
[4] = tested on: A549 NSCLC
[5] = tested on: HCT-116 colon
[6] = tested on: SW-620 colon
[7] = tested on: SF-268 CNS
[8] = tested on: MDA-MB-435
[9] = tested on: RPMI-8226 leukemia
[10] = tested on: OVCAR-4 ovarian
[11] = tested on: OVCAR-3 ovarian
[12] = tested on: CAKI-1 renal
[13] = tested on: M14 melanoma
[14] = tested on: CCRF-CEM leukemia
[15] = tested on: K-562 leukemia
[16] = tested on: NCI/ADR-RES ovarian
[17] = tested on: NCI-H226 lung
[18] = tested on: TK-10 renal
[19] = tested on: RXF 393 renal
[20] = tested on: A498 renal
[21] = tested on: OVCAR-5 ovarian
[22] = tested on: COLO 205 colon
[23] = tested on: 786-0 renal
[24] = tested on: SNB-75 CNS
[25] = tested on: OVCAR-8 ovarian
[26] = tested on: BT-549 breast
[27] = tested on: HOP-62 NSCLC
[28] = tested on: SNB-19 CNS
[29] = tested on: SK-MEL-5 melanoma
[30] = tested on: HT29 colon
[31] = tested on: DU-145 prostate
[32] = tested on: HCT-15 colon
[33] = tested on: MCF7 breast
[34] = tested on: HL-60(TB) leukemia
[35] = tested on: HCC-2998 colon
[36] = tested on: PC-3 prostate
[37] = tested on: HS 578T breast
[38] = tested on: U251 CNS
[39] = tested on: MOLT-4 leukemia
[40] = tested on: UACC-62 melanoma
[41] = tested on: SK-MEL-28 melanoma
[42] = tested on: LOX IMVI melanoma
[43] = tested on: ACHN renal
[44] = tested on: SK-MEL-2 melanoma
[45] = tested on: NCI-H23 lung
[46] = tested on: MALME-3M melanoma
[47] = tested on: NCI-H522 lung
[48] = tested on: T-47D breast
[49] = tested on: IGROV1 ovarian
[50] = tested on: UACC-257 melanoma
[51] = tested on: SF-539 CNS
[52] = tested on: SN12C renal
[53] = tested on: EKVX NSCLC
[54] = tested on: SF-295 CNS
[55] = tested on: MDA-MB-231 breast
[56] = tested on: KM12 colon
[57] = tested on: NCI-H460 lung
[58] = tested on: SK-OV-3 ovarian

C=C1CC[C@@H]2[C@]3(C)COC(c4ccccc4)O[C@@H]3CC[C@@]2(C)[C@@H]1C/C=C1/C(=O)OCC1OC(C)=O (stereo partly specified)
GI50 [1]: 5.05 µM | TGI [1]: 19 µM | GI50 [2]: 10.4 µM | TGI [2]: 22.1 µM | GI50 [3]: 10.4 µM | TGI [3]: 23.4 µM | GI50 [4]: 15.4 µM | TGI [4]: 32.3 µM | GI50 [5]: 2.25 µM | TGI [5]: 5.78 µM | GI50 [6]: 3.04 µM | TGI [6]: 10.3 µM | GI50 [7]: 15.7 µM | TGI [7]: 34.3 µM | GI50 [8]: 10.4 µM | TGI [8]: 22.5 µM | GI50 [9]: 2.7 µM | TGI [9]: 7.85 µM | GI50 [10]: 10.9 µM | TGI [10]: 25.2 µM | GI50 [11]: 2.74 µM | TGI [11]: 11.9 µM | GI50 [12]: 12.2 µM | TGI [12]: 24.7 µM | GI50 [13]: 7.44 µM | TGI [13]: 20.9 µM | GI50 [14]: 2.54 µM | TGI [14]: 10.9 µM | GI50 [15]: 3.72 µM | TGI [15]: > 100 µM | GI50 [16]: 3.28 µM | TGI [16]: 11.1 µM | GI50 [17]: 4.89 µM | TGI [17]: 23.1 µM | GI50 [18]: 19 µM | TGI [18]: 33.4 µM | GI50 [19]: 4.13 µM | TGI [19]: 17 µM | GI50 [20]: 19.9 µM | TGI [20]: 35.7 µM | GI50 [21]: 13.4 µM | TGI [21]: 26.2 µM | GI50 [22]: 17.5 µM | TGI [22]: 36.1 µM | GI50 [23]: 12.5 µM | TGI [23]: 25.4 µM | GI50 [24]: 1.77 µM | TGI [24]: 19.3 µM | GI50 [25]: 3.23 µM | TGI [25]: 12.3 µM | GI50 [26]: 2.67 µM | TGI [26]: 10 µM | GI50 [27]: 16 µM | TGI [27]: 31.2 µM | GI50 [28]: 15.1 µM | TGI [28]: 28.4 µM | GI50 [29]: 12.2 µM | TGI [29]: 24.8 µM | GI50 [30]: 3.63 µM | TGI [30]: 13.7 µM | GI50 [31]: 13.6 µM | TGI [31]: 27.2 µM | GI50 [32]: 4.3 µM | TGI [32]: 16.3 µM | GI50 [33]: 3.34 µM | TGI [33]: 15.5 µM | GI50 [34]: 7.37 µM | TGI [34]: 39.2 µM | GI50 [35]: 13.9 µM | TGI [35]: 26.9 µM | GI50 [36]: 5.4 µM | TGI [36]: 20.4 µM | GI50 [37]: 20.5 µM | TGI [37]: 67.4 µM | GI50 [38]: 10.4 µM | TGI [38]: 24.5 µM | GI50 [39]: 4.43 µM | TGI [39]: 28.6 µM | GI50 [40]: 7.28 µM | TGI [40]: 20.3 µM | GI50 [41]: 13.9 µM | TGI [41]: 26.9 µM | GI50 [42]: 1.8 µM | TGI [42]: 3.61 µM | GI50 [43]: 8.95 µM | TGI [43]: 21 µM | GI50 [44]: 11.1 µM | TGI [44]: 24.8 µM | GI50 [45]: 15.1 µM | TGI [45]: 29.1 µM | GI50 [46]: 17.1 µM | TGI [46]: 33.1 µM | GI50 [47]: 10.2 µM | TGI [47]: 22.8 µM | GI50 [48]: 10.6 µM | TGI [48]: 27 µM | GI50 [49]: 14.4 µM | TGI [49]: 27.8 µM | GI50 [50]: 14.3 µM | TGI [50]: 28.7 µM | GI50 [51]: 4.12 µM | TGI [51]: 14.8 µM | GI50 [52]: 5.64 µM | TGI [52]: 18.9 µM | GI50 [53]: 10.7 µM | TGI [53]: 22.6 µM | GI50 [54]: 13.3 µM | TGI [54]: 26.1 µM | GI50 [55]: 10.9 µM | TGI [55]: 23 µM | GI50 [56]: 10.6 µM | TGI [56]: 25.7 µM | GI50 [57]: 18.9 µM | TGI [57]: 51.8 µM | GI50 [58]: 19.3 µM | TGI [58]: 34.4 µM

Source: PubChem BioAssay (NCI)
